For eight compounds, GI50 and TGI results are on record in PubChem BioAssay (NCI).

Test systems include HL-60(TB) leukemia; SN12C renal; LOX IMVI melanoma; HS 578T breast; KM12 colon; COLO 205 colon; SF-268 CNS; 786-0 renal; U251 CNS; SK-MEL-5 melanoma.
What all share (assay): NCI anticancer screen, dose series, 48 h

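Five compound concentrations were applied to cells in 96-well plates for 48 hours; endpoints were derived by simple linear interpolation of the resulting dose-response curve. GI50: concentration for 50% inhibition of growth. TGI: concentration producing complete growth inhibition.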 Where only a bound is given, the exact number is not on record here.

Regarding `Cc1cc(=O)[nH]c(N/N=C/c2cc(Br)ccc2O)n1`, the GI50 was 446 nM in the assay on HL-60(TB) leukemia; 809 nM in the assay with SN12C renal; 634 nM with LOX IMVI melanoma; 7100 nM with HS 578T breast; 869 nM with KM12 colon; 3450 nM with COLO 205 colon. Also, the GI50 with SF-268 CNS was 728 nM; in the assay with 786-0 renal, 2350 nM; in the assay with U251 CNS it was 808 nM. In addition, the TGI is 5680 nM in the assay with HL-60(TB) leukemia; greater than 100000 nM in the assay on SN12C renal; greater than 100000 nM with LOX IMVI melanoma; greater than 100000 nM with HS 578T breast; greater than 100000 nM in the assay on KM12 colon; 32500 nM in the assay on COLO 205 colon. Further, the TGI in the assay with SF-268 CNS, in the assay on 786-0 renal and with U251 CNS was greater than 100000 nM throughout.

On to `CC(C)N1CC2CN(Cc3ccccc3)CC(C1)C2=O`, for which the TGI in the assay on HL-60(TB) leukemia, with SN12C renal, with LOX IMVI melanoma, in the assay on HS 578T breast, in the assay with KM12 colon and in the assay on COLO 205 colon was greater than 100000 nM in each case. The TGI in the assay on SF-268 CNS, in the assay with 786-0 renal and in the assay on U251 CNS was greater than 100000 nM each time.

As for `COc1ccc2sc3cccc(NCCN(C)C)c3c(=O)c2c1`, the GI50 in the assay with HL-60(TB) leukemia is 2160 nM; with SN12C renal it was 3360 nM; in the assay with HS 578T breast, 2830 nM; with SK-MEL-5 melanoma, 2450 nM; in the assay with KM12 colon it was 3720 nM; with COLO 205 colon it was 1750 nM. Moreover, the GI50 in the assay on SF-268 CNS was 3810 nM; with 786-0 renal, 3140 nM. The TGI worked out at 4740 nM with HL-60(TB) leukemia; 13400 nM in the assay on SN12C renal; 13100 nM in the assay with HS 578T breast; 6270 nM in the assay with SK-MEL-5 melanoma; 12100 nM with KM12 colon; 3420 nM in the assay with COLO 205 colon. Besides, the TGI with SF-268 CNS came out at 14400 nM; in the assay on 786-0 renal, 14500 nM.

For `Nc1ccccc1NC(=O)c1ccc(CNc2nccc(-c3cccnc3)n2)cc1`, the GI50 with HL-60(TB) leukemia was 424 nM; in the assay on SN12C renal it was 2340 nM; in the assay with HS 578T breast, 1060 nM; in the assay on SK-MEL-5 melanoma, 381 nM; in the assay with KM12 colon, 886 nM; with COLO 205 colon it was 626 nM. Also, the GI50 was 995 nM with SF-268 CNS, 2150 nM in the assay with 786-0 renal and 1120 nM with U251 CNS. Further, the TGI with HL-60(TB) leukemia is 2430 nM; in the assay on SN12C renal, greater than 72800 nM; in the assay with HS 578T breast, greater than 100000 nM; in the assay on SK-MEL-5 melanoma it was 1150 nM; with KM12 colon it was 14100 nM; in the assay on COLO 205 colon it was 2060 nM. Moreover, the TGI with SF-268 CNS was greater than 21400 nM; in the assay on 786-0 renal, greater than 47900 nM.

On to `COC1=CC(c2ccc[nH]2)=N/C1=C\c1[nH]c(C)c(CC(=O)OCc2ccccc2)c1CCC(=O)OCc1ccccc1`, for which the GI50 is 490 nM in the assay with HL-60(TB) leukemia; 284 nM in the assay on LOX IMVI melanoma; 395 nM with HS 578T breast; 367 nM with KM12 colon; 260 nM with COLO 205 colon; 464 nM with SF-268 CNS. Besides, the GI50 in the assay on 786-0 renal was 376 nM; in the assay on U251 CNS, 345 nM. Moreover, the TGI was found to be 2660 nM in the assay on HL-60(TB) leukemia; 1030 nM with LOX IMVI melanoma; 2870 nM with HS 578T breast; 2260 nM in the assay on KM12 colon; 1200 nM in the assay on COLO 205 colon; 1530 nM in the assay with 786-0 renal. This compound also had a TGI in the assay with U251 CNS of 1680 nM.

`O=C1c2[nH]cc(CNC3CN4CCC3CC4)c2C(=O)c2c1c(O)c1ccccc1c2O` (stereo not drawn): the GI50 with SN12C renal was 1060 nM; in the assay with LOX IMVI melanoma, 1050 nM; in the assay with HS 578T breast, 26600 nM; in the assay with SK-MEL-5 melanoma, 11900 nM; in the assay with KM12 colon it was 672 nM; in the assay with COLO 205 colon, 2050 nM. The GI50 in the assay on SF-268 CNS is 12600 nM; in the assay on 786-0 renal, 2530 nM; in the assay with U251 CNS it was 1210 nM. For the same compound, the TGI with SN12C renal stood at 15500 nM; in the assay with LOX IMVI melanoma, 2310 nM; in the assay on HS 578T breast, 77500 nM; with SK-MEL-5 melanoma it was 31500 nM; in the assay on KM12 colon it was 2320 nM; in the assay on COLO 205 colon, 9560 nM. The TGI in the assay with SF-268 CNS was 68400 nM; in the assay with 786-0 renal it was 8650 nM; in the assay with U251 CNS, 2580 nM.

For the compound `NCCCNc1nc2ccccc2c2c(=O)c3cc(F)cc(F)c3sc12`, the GI50 was 2080 nM in the assay with HL-60(TB) leukemia; 1680 nM in the assay on SN12C renal; 1470 nM in the assay with HS 578T breast; 1680 nM in the assay on SK-MEL-5 melanoma; 1740 nM in the assay on KM12 colon; 1920 nM in the assay on COLO 205 colon. Moreover, the GI50 in the assay on SF-268 CNS was 1630 nM; in the assay on 786-0 renal, 1490 nM. Also, the TGI with HL-60(TB) leukemia is 4200 nM; in the assay with SN12C renal it was 3270 nM; in the assay on HS 578T breast, 3090 nM; in the assay on SK-MEL-5 melanoma, 3090 nM; in the assay with KM12 colon, 3260 nM; in the assay with COLO 205 colon it was 4620 nM. Besides, the TGI with SF-268 CNS was found to be 3320 nM; in the assay on 786-0 renal, 3120 nM.

As for `CC1=C(O)c2cn(C)cc2C(=O)C1=O`, the TGI with HL-60(TB) leukemia, in the assay with SN12C renal, in the assay with LOX IMVI melanoma, in the assay with SK-MEL-5 melanoma, in the assay on KM12 colon and in the assay on COLO 205 colon was greater than 100000 nM each time. For the same compound, the TGI in the assay on SF-268 CNS, with 786-0 renal and in the assay with U251 CNS was greater than 100000 nM in each case.
